According to ChEMBL document CHEMBL1201862, “PubChem BioAssay data set” (2004):
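Exposure lasted 48 hours, with cells grown in 96-well plates and compounds tested at five concentrations. Here, GI50 denotes the concentration required for 50% inhibition of growth.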 Active and inactive are the calls of the source. No stated cut-off is given here; in the data, active = GI50 up to about 1.1 µM and inactive = higher.

Columns and labels:
Experiment in all cases: NCI-60 cell line screen, 48 h
NCI-H522 = test system: NCI-H522
A498 = test system: A498
OVCAR-8 = test system: OVCAR-8
786-0 = test system: 786-0
CAKI-1 = test system: CAKI-1
IGROV-1 = test system: IGROV-1
UACC-257 = test system: UACC-257
Malme-3M = test system: Malme-3M
PC-3 = test system: PC-3
U-251 = test system: U-251
HT-29 = test system: HT-29
COLO 205 = test system: COLO 205
SK-MEL-2 = test system: SK-MEL-2
HOP-62 = test system: HOP-62
NCI/ADR-RES = test system: NCI/ADR-RES
ACHN = test system: ACHN
EKVX = test system: EKVX
SNB-75 = test system: SNB-75
MDA-MB-435 = test system: MDA-MB-435
HCT-15 = test system: HCT-15
LOX IMVI = test system: LOX IMVI
RPMI-8226 = test system: RPMI-8226
DU-145 = test system: DU-145
HCT-116 = test system: HCT-116
SN12C = test system: SN12C
HCC 2998 = test system: HCC 2998
SF-539 = test system: SF-539
MCF7 = test system: MCF7
MDA-N = test system: MDA-N
SK-MEL-28 = test system: SK-MEL-28
Hs-578T = test system: Hs-578T
RXF 393 = test system: RXF 393
SNB-19 = test system: SNB-19
SR = test system: SR
OVCAR-3 = test system: OVCAR-3
UO-31 = test system: UO-31
KM12 = test system: KM12
SK-MEL-5 = test system: SK-MEL-5
MOLT-4 = test system: MOLT-4
NCI-H460 = test system: NCI-H460
SW-620 = test system: SW-620
BT-549 = test system: BT-549
SF-295 = test system: SF-295
HOP-92 = test system: HOP-92
HL-60 = test system: HL-60
TK-10 = test system: TK-10
NCI-H226 = test system: NCI-H226
OVCAR-5 = test system: OVCAR-5
SF-268 = test system: SF-268
CCRF-CEM = test system: CCRF-CEM
T47D = test system: T47D
A549 = test system: A549
K562 = test system: K562
NCI-H23 = test system: NCI-H23
UACC-62 = test system: UACC-62
OVCAR-4 = test system: OVCAR-4
SK-OV-3 = test system: SK-OV-3
MDA-MB-231 = test system: MDA-MB-231
M14 = test system: M14

In the case of `Cc1ccc2c(c1)C/C(=C\c1ccccc1C(=O)O)C2=O`, the GI50 (NCI-H522) is reported as > 100 µM (inactive), the GI50 (A498) is reported as > 100 µM (inactive) and the GI50 (OVCAR-8) is reported as > 100 µM (inactive). For the same molecule, the GI50 (786-0) was > 100 µM (inactive), the GI50 (CAKI-1) was > 100 µM (inactive) and the GI50 (IGROV-1) was > 100 µM (inactive). For the same molecule, the GI50 (UACC-257) was > 100 µM (inactive), the GI50 (Malme-3M) was > 100 µM (inactive) and the GI50 (PC-3) was > 100 µM (inactive). For the same molecule, the GI50 (U-251) was > 100 µM (inactive), the GI50 (HT-29) was 40.6 µM (inactive) and the GI50 (COLO 205) was 35.6 µM (inactive). For the same molecule, the GI50 (SK-MEL-2) was > 100 µM (inactive), the GI50 (HOP-62) was > 100 µM (inactive) and the GI50 (NCI/ADR-RES) was > 100 µM (inactive). For the same molecule, the GI50 (ACHN) was > 100 µM (inactive), the GI50 (EKVX) was > 100 µM (inactive) and the GI50 (SNB-75) was > 100 µM (inactive). For the same molecule, the GI50 (MDA-MB-435) was > 100 µM (inactive), the GI50 (HCT-15) was > 100 µM and the GI50 (LOX IMVI) was > 100 µM (inactive). The GI50 (RPMI-8226) was 43.7 µM (inactive), the GI50 (DU-145) was > 100 µM (inactive) and the GI50 (HCT-116) was > 100 µM (inactive). For the same molecule, the GI50 (SN12C) was > 100 µM (inactive), the GI50 (HCC 2998) was > 100 µM (inactive) and the GI50 (SF-539) was 50.1 µM (inactive). For the same molecule, the GI50 (MCF7) was > 100 µM (inactive), the GI50 (MDA-N) was > 100 µM (inactive) and the GI50 (SK-MEL-28) was > 100 µM (inactive). The GI50 (Hs-578T) was > 100 µM (inactive), the GI50 (RXF 393) was > 100 µM (inactive) and the GI50 (SNB-19) was > 100 µM (inactive). The GI50 (SR) was 46.3 µM (inactive), the GI50 (OVCAR-3) was > 100 µM (inactive) and the GI50 (UO-31) was 98.6 µM (inactive). The GI50 (KM12) was > 100 µM (inactive), the GI50 (SK-MEL-5) was 52.6 µM (inactive) and the GI50 (MOLT-4) was > 100 µM (inactive). For the same molecule, the GI50 (NCI-H460) was > 100 µM (inactive), the GI50 (SW-620) was > 100 µM (inactive) and the GI50 (BT-549) was > 100 µM (inactive). The GI50 (SF-295) was > 100 µM (inactive), the GI50 (HOP-92) was > 100 µM (inactive) and the GI50 (HL-60) was > 100 µM (inactive). For the same molecule, the GI50 (TK-10) was > 100 µM (inactive), the GI50 (NCI-H226) was 37 µM (inactive) and the GI50 (OVCAR-5) was > 100 µM (inactive). The GI50 (SF-268) was > 100 µM (inactive), the GI50 (CCRF-CEM) was > 100 µM (inactive) and the GI50 (T47D) was > 100 µM (inactive). For the same molecule, the GI50 (A549) was > 100 µM (inactive), the GI50 (K562) was 98.2 µM (inactive) and the GI50 (NCI-H23) was > 100 µM (inactive). For the same molecule, the GI50 (UACC-62) was > 100 µM (inactive) and the GI50 (OVCAR-4) was > 100 µM (inactive).

With `O=C(Nn1c(-c2ccccc2)nc2ccccc2c1=O)c1ccc(CS)cc1` the GI50 (NCI-H522) was 52.2 µM (inactive), the GI50 (A498) was 24.5 µM (inactive) and the GI50 (SK-OV-3) was 82.8 µM (inactive). The GI50 (OVCAR-8) was 57.1 µM (inactive), the GI50 (786-0) was 24.4 µM (inactive) and the GI50 (IGROV-1) was 26.1 µM (inactive). The GI50 (UACC-257) was > 100 µM (inactive), the GI50 (Malme-3M) was 36.6 µM (inactive) and the GI50 (PC-3) was 20.2 µM (inactive). For the same molecule, the GI50 (U-251) was 27.6 µM (inactive), the GI50 (HT-29) was 53 µM (inactive) and the GI50 (COLO 205) was 60.3 µM (inactive). The GI50 (HOP-62) was > 100 µM (inactive), the GI50 (ACHN) was 54.5 µM (inactive) and the GI50 (EKVX) was 36.7 µM (inactive). For the same molecule, the GI50 (SNB-75) was 39.7 µM (inactive), the GI50 (MDA-MB-435) was 41.8 µM (inactive) and the GI50 (MDA-MB-231) was 37 µM (inactive). For the same molecule, the GI50 (LOX IMVI) was 1.67 µM (inactive), the GI50 (RPMI-8226) was 33.2 µM (inactive) and the GI50 (DU-145) was 39.4 µM (inactive). The GI50 (HCT-116) was 39.4 µM (inactive), the GI50 (SN12C) was 36.6 µM (inactive) and the GI50 (HCC 2998) was > 100 µM (inactive). The GI50 (SF-539) was 24.5 µM (inactive), the GI50 (MCF7) was 29.8 µM (inactive) and the GI50 (MDA-N) was 61.2 µM (inactive). The GI50 (SK-MEL-28) was 69.8 µM (inactive), the GI50 (Hs-578T) was 35.6 µM (inactive) and the GI50 (RXF 393) was 44.7 µM (inactive). The GI50 (SNB-19) was > 100 µM (inactive), the GI50 (SR) was 19.5 µM (inactive) and the GI50 (M14) was 47.6 µM (inactive). For the same molecule, the GI50 (OVCAR-3) was 67.6 µM (inactive), the GI50 (UO-31) was 46.3 µM (inactive) and the GI50 (KM12) was 81.1 µM (inactive). The GI50 (SK-MEL-5) was 11.8 µM (inactive), the GI50 (MOLT-4) was 16.6 µM (inactive) and the GI50 (NCI-H460) was > 100 µM (inactive). The GI50 (SW-620) was 31.1 µM (inactive), the GI50 (BT-549) was 22.4 µM (inactive) and the GI50 (SF-295) was > 100 µM (inactive). The GI50 (HOP-92) was 34.9 µM (inactive), the GI50 (HL-60) was 16 µM (inactive) and the GI50 (TK-10) was > 100 µM (inactive). For the same molecule, the GI50 (NCI-H226) was 37.7 µM (inactive), the GI50 (OVCAR-5) was > 100 µM (inactive) and the GI50 (SF-268) was 26.2 µM (inactive). For the same molecule, the GI50 (CCRF-CEM) was 5.89 µM (inactive), the GI50 (T47D) was > 100 µM (inactive) and the GI50 (A549) was 36.7 µM (inactive). For the same molecule, the GI50 (K562) was 38.2 µM (inactive), the GI50 (NCI-H23) was 49.9 µM (inactive) and the GI50 (UACC-62) was 27.7 µM (inactive). The GI50 (OVCAR-4) was 98.4 µM (inactive).
